The text below walks through data of US20260043020A1, “BINDING MEMBERS WITH ALTERED DIVERSITY SCAFFOLD DOMAINS” (priority 2016, published 2026).

This experiment deals with T1, trypsin (Bos taurus, UniProt P00760).
T1 construct: gene PRSS1
T1 sequence (P00760 24-246): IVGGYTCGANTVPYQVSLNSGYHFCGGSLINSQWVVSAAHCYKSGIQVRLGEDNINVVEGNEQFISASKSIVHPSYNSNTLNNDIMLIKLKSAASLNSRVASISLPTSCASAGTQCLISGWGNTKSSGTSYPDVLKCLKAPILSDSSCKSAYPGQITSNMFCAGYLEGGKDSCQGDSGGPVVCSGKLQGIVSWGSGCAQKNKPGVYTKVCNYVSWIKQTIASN
In words: Polyclonal phage TRF binding assay on trypsin. The note with it: phage display; direct gene-III fusion or round-2 polyclonal phage. How it is done: Phage display technology facilitates isolation of binders to any given target from large combinatorial repertoires based on proteins and peptides that can be presented on the surface of filamentous phage^105. In order to isolate functional knottin-antibody fusions from the KnotBody libraries multiple rounds of phage display selections on trypsin (cognate antigen for the EETI-II donor) were carried out. Phage particles were prepared by rescuing KnotBody libraries using trypsin cleavable helper phage^102,106Two rounds of phage display selections were performed on 10 μg/ml biotinylated trypsin immobilised on Streptavidin (for Round-1) or Neutravidin (for round-2) coated Maxisorp™ immunotubes (Thermo Scientific, Cat No. 444202). In both rounds of selection, phage libraries were pre-incubated with streptavidin coated paramagnetic beads (Thermo Fisher Scientific, Cat. No. 11205D). […] Polyclonal phage preparations from round-2 selection outputs were analysed for trypsin binding using a time resolved fluorescence (TRF) binding assay. In this assay, polyclonal phage binding to biotinylated trypsin immobilised on neutravidin (Thermo Fisher Scientific, Cat. No 31000) coated Maxisorp™ plates (Thermo Scientific, Cat. No. 437111) was detected using a mouse anti-M13 antibody (GE Healthcare, Cat. No. 27-9420-01) followed by europium conjugated anti-mouse antibody (Perkin Elmer, Cat. No. AD0124). […]

With EETI-II, the “phage binding to trypsin” value is “no detectable binding”.
